Results: patent publication US20170114070A1, “INHIBITORS OF THE WNT SIGNALLING PATHWAYS” (Bayer Pharma Aktiengesellschaft, priority 2014, published 2017)

Key:
[1] = tested on: constitutive active Wnt pathway (HCT116 TOPFlash); experiment: Cellular reporter assay, HCT116 Super TopFlash (constitutive active Wnt pathway); format: cell-based; conditions: Homo sapiens, HCT-116; HCT116 stably transfected with Super TopFlash vector; 36 hours incubation; luciferase expression
Experimental: In order to discover and characterize small molecules which inhibit the constitutive active colorectal cancer cell (CRC) Wnt pathway, a cellular reporter assay was employed. The corresponding assay cell was generated by transfection of the colorectal cancer cell line HCT116 (ATCC, #CCL-247) with the Super TopFlash vector (Morin, Science 275, 1997, 1787-1790; Molenaar et al., Cell 86 (3), 1996, 391-399). The HCT116 cell line is cultivated at 37° C. and 5% CO2 in DMEM/F-12 (Life Technologies, #11320-074), supplemented with 2 mM glutamine, 20 mM HEPES, 1.4 mM pyruvate, 0.15% Na-bicarbonate and 10% foetal bovine serum (GIBCO, #10270), this cancer cell line is pathophysiological relevant since it carries a deletion of position S45 in the β-catenin gene, leading to constitutive active Wnt signaling. Stable transfectants were generated by cotransfection with pcDNA3 and selection of stable transfected cells with 1 mg/ml G418.
(§1) In a parallel approach, HCT116 cells were cotransfected with the FOP control vector and pcDNA3. The FOP vector is identical to the TOP construct, but it contains instead of functional TCF elements a randomized, non-functional sequence. For this transfection a stable transfected cell line was generated as well.
(§2) In preparation of the assay, the two cell lines were plated 24 hours before at 10000 cells per well of a 384 micro titre plate (MTP) in 30 μL growth medium. Selective inhibitory activity for small molecules on the mutated Wnt pathway was determined after parallel incubation of both (TOP and FOP) HCT116 reporter cell lines with a compound dilution series from 50 μM to 15 nM in steps of 3.16-fold dilutions in CAFTY buffer (130 mM NaCl, 5 mM KCl, 20 mM HEPES, 1 mM MgCl2, 5 mM NaHCO3, pH 7.4) containing 2 mM Ca^2+ and 0.01% BSA. The compounds were thereby serially prediluted in 100% DMSO and thereafter in addition 50 fold into the CAFTY compound dilution buffer (described above). From this dilution 10 μL were added to the cells in 30 μL growth medium and incubated for 36 hours at 37° C. and 5% CO2. Thereafter luciferase assay buffer (1:1 mixture of luciferase substrate buffer (20 mM Tricine, 2.67 mM MgSO4, 0.1 mM EDTA, 4 mM DTT, 270 μM Coenzyme A, 470 μM Luciferin, 530 μM ATP, ph adjusted to pH 7.8 with a sufficient volume of 5M NaOH) and Triton buffer (30 mL Triton X-100, 115 mL glycerol, 308 mg Dithiothreitol, 4.45 g Na2HPO4.2H2O, 3.03 g TRIS HCl, ad 1 l H20, pH 7.8) was added as equal volume to the compound solution on the cells to determine luciferase expression as a measure of Wnt signaling activity in a luminometer.

[2] = tested on: HCT116 FOPFlash (FOP control vector, non-functional TCF elements); experiment: Cellular control reporter assay, HCT116 FOP control vector; format: cell-based; conditions: Homo sapiens, HCT-116; HCT116 stably transfected with FOP control vector; 36 hours incubation; luciferase expression; dilution series from 50 μM
Experimental: as §1, §2

`CN1CCN(CC(=O)Nc2cc(C(=O)Nc3cnc(-c4ccccc4)cn3)ccc2OC2CC2)CC1` [Example 21, 4-(cyclopropyloxy)-3-{[(4-methylpiperazin-1-yl)acetyl]amino}-N-(5-phenylpyrazin-2-yl)benzamide] showed an IC50 [1] of 0.0168 µM and an IC50 [2] of 11 µM.

In the case of `O=C(CN1CCOCC1)Nc1cc(C(=O)Nc2cnc(-c3ccccn3)cn2)ccc1OC1CC1` [Example 50, 4-(cyclopropyloxy)-3-[(morpholin-4-ylacetyl)amino]-N-[5-(pyridin-2-yl)pyrazin-2-yl]benzamide], the IC50 [1] is reported as 16.9 µM and the IC50 [2] is reported as no less than 50 µM.

With `Nc1ncc(-c2cnc(NC(=O)c3ccc(OC(F)(F)F)c(NC(=O)CN4CCOCC4)c3)cn2)cn1` [Example 53, N-[5-(2-aminopyrimidin-5-yl)pyrazin-2-yl]-3-[(morpholin-4-ylacetyl)amino]-4-(trifluoromethoxy)benzamide] the IC50 [1] was 0.83 µM and the IC50 [2] was 9.5 µM.

In the case of `O=C(CN1CCOCC1)Nc1cc(C(=O)Nc2cnc(-c3cnccn3)cn2)ccc1OC1CC1` [Example 52, N-(2,2′-bipyrazin-5-yl)-4-(cyclopropyloxy)-3-[(morpholin-4-ylacetyl)amino]benzamide], the IC50 [1] is reported as 0.372 µM and the IC50 [2] is reported as 44.7 µM.

In the case of `Cc1ccncc1-c1cnc(NC(=O)c2ccc(OC(F)(F)F)c(NC(=O)CN3CCOCC3)c2)cn1` [Example 45, N-[5-(4-methylpyridin-3-yl)pyrazin-2-yl]-3-[(morpholin-4-ylacetyl)amino]-4-(trifluoromethoxy)benzamide], the IC50 [1] is reported as 16.7 µM and the IC50 [2] is reported as no less than 50 µM.

For `O=C(CN1CCOCC1)Nc1cc(C(=O)Nc2cnc(-c3cc(F)cc(F)c3)cn2)ccc1OC(F)(F)F` [Example 31, N-[5-(3,5-difluorophenyl)pyrazin-2-yl]-3-[(morpholin-4-ylacetyl)amino]-4-(trifluoromethoxy)benzamide], the IC50 [1] was 0.0885 µM and the IC50 [2] was 26.8 µM.

Compound `O=C(CN1CCOCC1)Nc1cc(C(=O)Nc2cnc(-c3cccnc3)cn2)ccc1OC(F)(F)F` [Example 23, 3-[(morpholin-4-ylacetyl)amino]-N-[5-(pyridin-3-yl)pyrazin-2-yl]-4-(trifluoromethoxy)benzamide] has an IC50 [1] of 0.0297 µM and an IC50 [2] of 46 µM.

Compound `Cc1ccncc1-c1cnc(NC(=O)c2ccc(OC(F)(F)F)c(NC(=O)CN3CCN(C)CC3)c2)cn1` [Example 30, 3-{[(4-methylpiperazin-1-yl)acetyl]amino}-N-[5-(4-methylpyridin-3-yl)pyrazin-2-yl]-4-(trifluoromethoxy)benzamide] has an IC50 [1] of 0.082 µM and an IC50 [2] of no less than 50 µM.

For `Cc1cccc(-c2cnc(NC(=O)c3ccc(OC(F)(F)F)c(NC(=O)CN4CCN(C)CC4)c3)cn2)c1` [Example 32, N-[5-(3-methylphenyl)pyrazin-2-yl]-3-{[(4-methylpiperazin-1-yl)acetyl]amino}-4-(trifluoromethoxy)benzamide], the IC50 [1] was 16.7 µM and the IC50 [2] was 40 µM.

`N=S1(=O)CCN(CC(=O)Nc2cc(C(=O)Nc3ccc(-c4ccccc4)nn3)ccc2OC(F)(F)F)CC1` [Example 62] showed an IC50 [1] of 12.5 µM and an IC50 [2] of 25.5 µM.

`O=C(CN1CCOCC1)Nc1cc(C(=O)Nc2ccc(-c3cccnc3)nn2)ccc1OC(F)(F)F` [Example 14, 3-[(morpholin-4-ylacetyl)amino]-N-[6-(pyridin-3-yl)pyridazin-3-yl]-4-(trifluoromethoxy)benzamide] was tested, and the IC50 [1] was 0.054 µM and the IC50 [2] was no less than 50 µM.

With `CN1CCN(CC(=O)Nc2cc(C(=O)Nc3ccc(-c4cnc(N)nc4)nn3)ccc2OC(F)(F)F)CC1` [Example 3, N-[6-(2-aminopyrimidin-5-yl)pyridazin-3-yl]-3-{[(4-methylpiperazin-1-yl)acetyl]amino}-4-(trifluoromethoxy)benzamide] the IC50 [1] was 0.0992 µM and the IC50 [2] was no less than 50 µM.

With `CN1CCN(CC(=O)Nc2cc(C(=O)Nc3ccc(-c4cccnc4F)nn3)ccc2OC(F)(F)F)CC1` [Example 12, N-[6-(2-fluoropyridin-3-yl)pyridazin-3-yl]-3-{[(4-methylpiperazin-1-yl)acetyl]amino}-4-(trifluoromethoxy)benzamide] the IC50 [1] was 0.12 µM and the IC50 [2] was no less than 50 µM.

`O=C(Nc1ccc([N+](=O)[O-])cc1Cl)c1cc(Cl)ccc1O` [Ref., niclosamide, reference compound] was tested, and the IC50 [2] was 3.1 µM.

`CN1CCN(CC(=O)Nc2cc(C(=O)Nc3ccc(-c4ccc(N)nc4)nn3)ccc2OC(F)(F)F)CC1` [Example 1, N-[6-(6-aminopyridin-3-yl)pyridazin-3-yl]-3-{[(4-methylpiperazin-1-yl)acetyl]amino}-4-(trifluoromethoxy)benzamide] gave an IC50 [1] of 0.0248 µM and an IC50 [2] of no less than 50 µM.

With `CN1CCN(CC(=O)Nc2cc(C(=O)Nc3cnc(-c4ccccc4F)cn3)ccc2OC(F)(F)F)CC1` [Example 41, N-[5-(2-fluorophenyl)pyrazin-2-yl]-3-{[(4-methylpiperazin-1-yl)acetyl]amino}-4-(trifluoromethoxy)benzamide] the IC50 [1] was 0.225 µM and the IC50 [2] was no less than 50 µM.

`CN1CCN(CC(=O)Nc2cc(C(=O)Nc3cnc(-c4cccnc4)cn3)ccc2OC(F)(F)F)CC1` [Example 22, 3-{[(4-methylpiperazin-1-yl)acetyl]amino}-N-[5-(pyridin-3-yl)pyrazin-2-yl]-4-(trifluoromethoxy)benzamide] gave an IC50 [1] of 0.017 µM and an IC50 [2] of 38 µM.

In the case of `CN1CCN(CC(=O)Nc2cc(C(=O)Nc3cnc(-c4ccccc4)cn3)ccc2OC(F)(F)F)CC1` [Example 11, 3-{[(4-methylpiperazin-1-yl)acetyl]amino}-N-(5-phenylpyrazin-2-yl)-4-(trifluoromethoxy)benzamide], the IC50 [1] is reported as 0.013 µM and the IC50 [2] is reported as no less than 50 µM.

`O=C(CN1CCOCC1)Nc1cc(C(=O)Nc2cnc(-c3cncnc3)cn2)ccc1OC(F)(F)F` [Example 26, 3-[(morpholin-4-ylacetyl)amino]-N-[5-(pyrimidin-5-yl)pyrazin-2-yl]-4-(trifluoromethoxy)benzamide] gave an IC50 [1] of 0.058 µM and an IC50 [2] of no less than 50 µM.

`Cc1cccc(F)c1-c1cnc(NC(=O)c2ccc(OC(F)(F)F)c(NC(=O)CN3CCN(C)CC3)c2)cn1` [Example 29, N-[5-(2-fluoro-6-methylphenyl)pyrazin-2-yl]-3-{[(4-methylpiperazin-1-yl)acetyl]amino}-4-(trifluoromethoxy)benzamide] showed an IC50 [1] of 16.7 µM and an IC50 [2] of no less than 50 µM.

In the case of `O=C(CN1CCOCC1)Nc1cc(C(=O)Nc2cnc(-c3ccccc3Cl)cn2)ccc1OC(F)(F)F` [Example 33, N-[5-(2-chlorophenyl)pyrazin-2-yl]-3-[(morpholin-4-ylacetyl)amino]-4-(trifluoromethoxy)benzamide], the IC50 [1] is reported as 0.115 µM and the IC50 [2] is reported as 31.5 µM.

With `Cc1ccccc1-c1cnc(NC(=O)c2ccc(OC(F)(F)F)c(NC(=O)CN3CCN(C)CC3)c2)cn1` [Example 42, N-[5-(2-methylphenyl)pyrazin-2-yl]-3-{[(4-methylpiperazin-1-yl)acetyl]amino}-4-(trifluoromethoxy)benzamide] the IC50 [1] was 0.12 µM and the IC50 [2] was no less than 50 µM.

`Cc1cccc(F)c1-c1cnc(NC(=O)c2ccc(OC(F)(F)F)c(NC(=O)CN3CCOCC3)c2)cn1` [Example 58, N-[5-(2-fluoro-6-methylphenyl)pyrazin-2-yl]-3-[(morpholin-4-ylacetyl)amino]-4-(trifluoromethoxy)benzamide] showed an IC50 [1] of 2.9 µM and an IC50 [2] of no less than 50 µM.

In the case of `CN1CCN(CC(=O)Nc2cc(C(=O)Nc3cnc(-c4ccc(N)nc4)cn3)ccc2OC(F)(F)F)CC1` [Example 24, N-[5-(6-aminopyridin-3-yl)pyrazin-2-yl]-3-{[(4-methylpiperazin-1-yl)acetyl]amino}-4-(trifluoromethoxy)benzamide], the IC50 [2] is reported as no less than 50 µM.
